From patent US10105357B2, “Indication of antibiotic drugs for preparation of cancer inhibition pharmaceutical composition” (LAUNX BIOMEDICAL CO., LTD., priority 2014, dated 2018)
Where two headings read alike, the source gives them in different places.

Tests used:
Type in all cases: cell-based, human
[1] = system: HepG2 (Hepatocellular Carcinoma); assay: Cell viability analysis, hepatic cancer HepG2; conditions: for viability at 10 µM: Homo sapiens
[2] = system: MCF7 (Mammary Gland, Adenocarcinoma); assay: Cell viability analysis, breast cancer MCF7; conditions: for viability at 10 µM: Homo sapiens
[3] = system: A549 (Lung Adenocarcinoma); assay: Cell viability analysis, lung cancer A549; conditions: for viability at 10 µM: Homo sapiens
[4] = system: HI650 (Lung Adenocarcinoma); assay: Cell viability analysis, lung cancer HI650; conditions: for viability at 10 µM: Homo sapiens
[5] = system: AGS (Gastric Adenocarcinoma); assay: Cell viability analysis, gastric cancer AGS; conditions: for viability at 10 µM: Homo sapiens
[6] = system: TSGH-8301 (Urinary Bladder Carcinoma); assay: Cell viability analysis, bladder cancer TSGH-8301; conditions: for viability at 10 µM: Homo sapiens
[7] = system: A375 (Amelanotic Melanoma); assay: Cell viability analysis, skin cancer A375; conditions: for viability at 10 µM: Homo sapiens
[8] = system: LoVo (Colorectal Adenocarcinoma); assay: Cell viability analysis, colon cancer LoVo; conditions: for viability at 10 µM: Homo sapiens, LoVo
[9] = system: HeLa (Cervix Adenocarcinoma); assay: Cell viability analysis, cervical cancer HeLa; conditions: for viability at 10 µM: Homo sapiens, HeLa
[10] = system: PC3 (p53−) (Prostate Adenocarcinoma); assay: Cell viability analysis, prostate cancer PC3; conditions: for viability at 10 µM: Homo sapiens
[11] = system: HL-60 (Acute Promyelocytic Leukemia); assay: Cell viability analysis, leukemia HL-60; conditions: for viability at 10 µM: Homo sapiens
[12] = system: MKN-45 (Gastric Adenocarcinoma); assay: Cell viability analysis, gastric cancer MKN-45; conditions: for viability at 10 µM: Homo sapiens
[13] = HepG2, 72 h, read-out: cell viability (survival rate), HepG2, drug 10 μM, 72 hours, WST-1, OD450 nm
[14] = MCF7, 72 h, read-out: cell viability (survival rate), MCF7, drug 10 μM, 72 hours, WST-1, OD450 nm
[15] = A549, 72 h, read-out: cell viability (survival rate), A549, drug 10 μM, 72 hours, WST-1, OD450 nm
[16] = NCI-H1650, 72 h, read-out: cell viability (survival rate), H1650, drug 10 μM, 72 hours, WST-1, OD450 nm
[17] = 72 h, read-out: cell viability (survival rate), AGS, drug 10 μM, 72 hours, WST-1, OD450 nm
[18] = 72 h, read-out: cell viability (survival rate), TSGH, drug 10 μM, 72 hours, WST-1, OD450 nm
[19] = A-375, 72 h, read-out: cell viability (survival rate), A375, drug 10 μM, 72 hours, WST-1, OD450 nm
[20] = 72 h, read-out: cell viability (survival rate), LoVo, drug 10 μM, 72 hours, WST-1, OD450 nm
[21] = 72 h, read-out: cell viability (survival rate), HeLa, drug 10 μM, 72 hours, WST-1, OD450 nm
[22] = 72 h, read-out: cell viability (survival rate), PC3, drug 10 μM, 72 hours, WST-1, OD450 nm
[23] = HL-60, 72 h, read-out: cell viability (survival rate), HL-60, drug 10 μM, 72 hours, WST-1, OD450 nm
[24] = drug 10 μM, 72 hours, WST-1, OD450 nm
[25] = MKN-45, 72 h, read-out: cell viability (survival rate), MKN-45, drug 10 μM, 72 hours, WST-1, OD450 nm
[26] = HepG2, 72 h, drug 10 μM, 72 hours, WST-1, OD450 nm, read-out: cell viability (survival rate), HepG2
[27] = A549, 72 h, drug 10 μM, 72 hours, WST-1, OD450 nm, read-out: cell viability (survival rate), A549
[28] = MKN-45, 72 h, drug 10 μM, 72 hours, WST-1, OD450 nm, read-out: cell viability (survival rate), MKN-45
[29] = NCI-H1650, 72 h, drug 10 μM, 72 hours, WST-1, OD450 nm, read-out: cell viability (survival rate), H1650
[30] = 72 h, drug 10 μM, 72 hours, WST-1, OD450 nm, read-out: cell viability (survival rate), AGS
[31] = 72 h, drug 10 μM, 72 hours, WST-1, OD450 nm, read-out: cell viability (survival rate), TSGH
[32] = A-375, 72 h, drug 10 μM, 72 hours, WST-1, OD450 nm, read-out: cell viability (survival rate), A375
[33] = 72 h, drug 10 μM, 72 hours, WST-1, OD450 nm, read-out: cell viability (survival rate), HeLa
[34] = 72 h, drug 10 μM, 72 hours, WST-1, OD450 nm, read-out: cell viability (survival rate), PC3
[35] = HL-60, 72 h, drug 10 μM, 72 hours, WST-1, OD450 nm, read-out: cell viability (survival rate), HL-60

## Nc1nccs1 [Aminothiazole]
[1]; [13]
  viability at 10 µM: 90.4%
[2]; [14]
  viability at 10 µM: 108%
[3]; [15]
  viability at 10 µM: 56.1%
[4]; [16]
  viability at 10 µM: 68.7%
[5]; [17]
  viability at 10 µM: 62.3%
[6]; [18]
  viability at 10 µM: 86%
[7]; [19]
  viability at 10 µM: 78.4%
[8]; [20]
  viability at 10 µM: 86.4%
[9]; [21]
  viability at 10 µM: 65.7%
[10]; [22]
  viability at 10 µM: 93.8%
[11]; [23]
  viability at 10 µM: 121%

## CN(C/C=C/C#CC(C)(C)C)Cc1cccc2ccccc12.Cl [Terbinafine HCl (Lamisil)]
[1]; [24]
  cell viability (survival rate), HepG2: 91.1
[2]; [24]
  cell viability (survival rate), MCF7: 67.7
[3]; [24]
  cell viability (survival rate), A549: 52.3
[12]; [24]
  cell viability (survival rate), MKN-45: 81.8
[4]; [24]
  cell viability (survival rate), H1650: 40.6
[5]; [24]
  cell viability (survival rate), AGS: 90.6
[6]; [24]
  cell viability (survival rate), TSGH: 50.6
[7]; [24]
  cell viability (survival rate), A375: 92.5
[8]; [24]
  cell viability (survival rate), LoVo: 71.4
[9]; [24]
  cell viability (survival rate), HeLa: 75.4
[10]; [24]
  cell viability (survival rate), PC3: 70.8
[11]; [24]
  cell viability (survival rate), HL-60: 86.5

## CN(C)[C@@H]1C(O)=C(C(N)=O)C(=O)[C@@]2(O)C(O)=C3C(=O)c4c(O)cccc4[C@@](C)(O)[C@H]3[C@H](O)[C@@H]12 [Oxytetracycline (Terramycin), Oxytetracycline]
[1]; human, 72 h, 10 µM
  cell viability (survival rate), HepG2: 88.4
[2]; human, 72 h, 10 µM
  cell viability (survival rate), MCF7: 38.9
[3]; human, 72 h, 10 µM
  cell viability (survival rate), A549: 42.3
[12]; human, 72 h, 10 µM
  cell viability (survival rate), MKN-45: 56.7
[4]; human, 72 h, 10 µM
  cell viability (survival rate), H1650: 70.1
[5]; human, 72 h, 10 µM
  cell viability (survival rate), AGS: 61.9
[6]; human, 72 h, 10 µM
  cell viability (survival rate), TSGH: 73.8
[7]; human, 72 h, 10 µM
  cell viability (survival rate), A375: 51.2
[8]; human, 72 h, 10 µM
  cell viability (survival rate), LoVo: 86.6
[9]; human, 72 h, 10 µM
  cell viability (survival rate), HeLa: 51.2
[10]; human, 72 h, 10 µM
  cell viability (survival rate), PC3: 70.8
[11]; human, 72 h, 10 µM
  cell viability (survival rate), HL-60: 97.9

## Nc1ccn([C@@H]2CS[C@H](CO)O2)c(=O)n1 [Lamivudine (Epivir), Lamivudine]
[1]; [13]
  viability at 10 µM: 108%
[2]; [14]
  viability at 10 µM: 83.2%
[3]; [15]
  viability at 10 µM: 75.2%
[12]; [25]
  viability at 10 µM: 47.7%
[4]; [16]
  viability at 10 µM: 54.1%
[5]; [17]
  viability at 10 µM: 44.7%
[6]; [18]
  viability at 10 µM: 71.1%
[7]; [19]
  viability at 10 µM: 95.8%
[8]; [20]
  viability at 10 µM: 71.3%
[9]; [21]
  viability at 10 µM: 86.4%
[10]; [22]
  viability at 10 µM: 110%
[11]; [23]
  viability at 10 µM: 119%

## CN(C/C=C/C#CC(C)(C)C)Cc1cccc2ccccc12 [Terbinafine (Lamisil, Terbinex), Terbinafine]
[1]; [26]
  viability at 10 µM: 98.3%
[2]; MCF7, 72 h, drug 10 μM, 72 hours, WST-1, OD450 nm, read-out: cell viability (survival rate), MCF7
  viability at 10 µM: 104%
[3]; [27]
  viability at 10 µM: 115%
[12]; [28]
  viability at 10 µM: 143%
[4]; [29]
  viability at 10 µM: 104%
[5]; [30]
  viability at 10 µM: 137%
[6]; [31]
  viability at 10 µM: 109%
[7]; [32]
  viability at 10 µM: 99.7%
[8]; [20]
  viability at 10 µM: 94%
[9]; [33]
  viability at 10 µM: 65.2%
[10]; [34]
  viability at 10 µM: 140%
[11]; [35]
  viability at 10 µM: 95.2%

## O=C([O-])[C@H](O)[C@@H](O)[C@H](O)[C@H](O)CO.[Na+] [Sodium Gluconate]
[1]; HepG2, drug 10 μM, 72 hours, WST-1, OD450 nm, read-out: cell viability (survival rate), HepG2
  viability at 10 µM: 95.3%
[2]; MCF7, drug 10 μM, 72 hours, WST-1, OD450 nm, read-out: cell viability (survival rate), MCF7
  viability at 10 µM: 94.7%
[3]; A549, drug 10 μM, 72 hours, WST-1, OD450 nm, read-out: cell viability (survival rate), A549
  viability at 10 µM: 91.9%
[12]; MKN-45, drug 10 μM, 72 hours, WST-1, OD450 nm, read-out: cell viability (survival rate), MKN-45
  viability at 10 µM: 93%
[4]; NCI-H1650, drug 10 μM, 72 hours, WST-1, OD450 nm, read-out: cell viability (survival rate), H1650
  viability at 10 µM: 94.6%
[5]; drug 10 μM, 72 hours, WST-1, OD450 nm, read-out: cell viability (survival rate), AGS
  viability at 10 µM: 90.8%
[6]; drug 10 μM, 72 hours, WST-1, OD450 nm, read-out: cell viability (survival rate), TSGH
  viability at 10 µM: 97.4%
[7]; A-375, drug 10 μM, 72 hours, WST-1, OD450 nm, read-out: cell viability (survival rate), A375
  viability at 10 µM: 116%
[8]; drug 10 μM, 72 hours, WST-1, OD450 nm, read-out: cell viability (survival rate), LoVo
  viability at 10 µM: 100%
[9]; drug 10 μM, 72 hours, WST-1, OD450 nm, read-out: cell viability (survival rate), HeLa
  viability at 10 µM: 73%
[11]; HL-60, drug 10 μM, 72 hours, WST-1, OD450 nm, read-out: cell viability (survival rate), HL-60
  viability at 10 µM: 91.2%

## Cc1cc(=O)[nH]c(=S)[nH]1 [Methylthiouracil]
[1]; [26]
  viability at 10 µM: 106%
[3]; [27]
  viability at 10 µM: 164%
[12]; [28]
  viability at 10 µM: 79.9%
[4]; [29]
  viability at 10 µM: 90.2%
[5]; [30]
  viability at 10 µM: 84.8%
[6]; [31]
  viability at 10 µM: 83.6%
[7]; [32]
  viability at 10 µM: 72.1%
[8]; [20]
  viability at 10 µM: 98.9%
[9]; [33]
  viability at 10 µM: 88.3%
[10]; [34]
  viability at 10 µM: 151%
[11]; [35]
  viability at 10 µM: 106%

## Fc1ccc([C@@H]2CCNC[C@H]2COc2ccc3c(c2)OCO3)cc1 [paroxetine]
[6]; 72 h, read-out: The results of antibiotic drug inhibiting cancer cell lines (cell viability analysis), TSGH-8301, TSGH-8301, repeated experiment
  viability at 10 µM: 38.4%

## CCCc1nc(C)c2c(=O)[nH]c(-c3cc(S(=O)(=O)N4CCN(CC)CC4)ccc3OCC)nn12 [Vardenafil (Vivanza), Vardenafil]
[1]; [13]
  viability at 10 µM: 81.8%
[2]; [14]
  viability at 10 µM: 117%
[3]; [15]
  viability at 10 µM: 96.5%
[12]; [25]
  viability at 10 µM: 68.2%
[4]; [16]
  viability at 10 µM: 67.2%
[5]; [17]
  viability at 10 µM: 86.5%
[6]; [18]
  viability at 10 µM: 57.8%
[7]; [19]
  viability at 10 µM: 73.2%
[8]; [20]
  viability at 10 µM: 106%
[9]; [21]
  viability at 10 µM: 61.7%
[11]; [23]
  viability at 10 µM: 127%
